Earlier results as cited in patent US12194068B2, “Dietary supplement composition for treating and managing acne” (CODEX LABS CORPORATION, priority 2023, dated 2025).

System: C. acnes
Conditions: compared with benzoyl peroxide and erythromycin

Compound: Oc1ccc(C=Cc2cc(O)cc(O)c2)cc1 [resveratrol]
- inhibition of C. acnes proliferation: on par with benzoyl peroxide and erythromycin
